Assay results: patent publication US11213567B2, “ZAG-derived peptide and use thereof” (L&C Bio Co., LTD., priority 2017, dated 2022)

B1: Z0: ZAG protein, entire sequence of 298 amino acids (GenBank: AAH05306.1; SEQ ID NO: 19) (protein, listed as Homo sapiens)
chain: MVRMVPVLLSLLLLLGPAVPQENQDGRYSLTYIYTGLSKHVEDVPAFQALGSLNDLQFFRYNSKDRKSQPMGLWRQVEGMEDWKQDSQLQKAREDIFMETLKDIVEYYNDSNGSHVLQGRFGCEIENNRSSGAFWKYYYDGKDYIEFNKEIPAWVPFDPAAQITKQKWEAEPVYVQRAKAYLEEECPATLRKYLKYSKNILDRQDPPSVVVTSHQAPGEKKKLKCLAYDFYPGKIDVHWTRAGEVQEPELRGDVLHNGNGTYQSWVVVAVPPQDTAPYSCHVQHSSLAQPLVVPWEAS

How the values were obtained:
IL-6 = test: Atopic dermatitis efficacy test using macrophages (RAW 264.7): IL-6 released after LPS, ELISA; format: cell-based, mouse; parameters: key to RAW 264.7 (mouse) IL-6: •: have statistical significance, determining as effective, compared with the positive control; details: for IL-6 concentration released in cell culture medium: Example 2-1, FIG. 2A, RAW 264.7, 1 μg/mL 24 hours, LPS 0.1 μg/mL 24 hours, compared with positive control (Pos); for RAW 264.7 (mouse) IL-6: 1 μg/mL for 24 hours, then LPS 0.1 μg/mL 24 hours
Method: (§1) To select an amino acid sequence corresponding to a key active site of ZAG having efficacy in the alleviation of atopic symptoms from 18 peptide candidate groups, an atopic dermatitis efficacy test was performed. Five types of immune-related cells were treated with ZAG peptide candidate groups (Z1-Z18, SEQ ID NOs: 1 to 18, respectively) and the ZAG protein (Z0, SEQ ID NOs: 19) at a concentration of 1 μg/mL for 24 hours, and then treated with a stimulator suitable for each cell line for the listed time to confirm an immune response. The experiment was performed with a group treated with only a stimulator as a positive control experimental group, and a group treated with only a vehicle without a stimulator as a negative control experimental group (Table 2: Efficacy test method for atopic dermatitis). An inflammatory response-related enzyme used as a stimulator is produced by immune cells, and histamine initiates an inflammatory response. The immune cells migrating to a damaged region release cytokines such as tumor necrosis factor-α (TNF-α) and interleukin-6 (IL-6) to directly lyse foreign invasive substances or collect other immune cells to initiate an inflammatory response. An efficacy test using inflammation-inducing materials, interferon-γ and skin inflammation-related factor CCL-17/thymus- and activation-regulated chemokine (TARC) was also performed to confirm an immune response.
Macrophages (RAW 264.7 cells) were treated with a stimulator LPS at a concentration of 0.1 μg/mL for 24 hours, and then the concentration of IL-6 released in a cell culture medium was confirmed by ELISA assay.
(§2) Various types of immune cells were treated with each of Z20mer-1, Z20mer-2, Z20mer-3, Z15mer-1, Z15mer-2, Z15mer-3 and Z15mer-4 at a concentration of 1 μg/mL for 24 hours, and then treated with a stimulator suitable for each cell line for the listed time to confirm an immune response. The atopic dermatitis efficacy test method was performed by the same method as described in Example 1 and Table 2.
(§3) The experiment was performed with experimental groups: 1) negative control: vehicle-treated group (Neg), 2) positive control: a group treated with only a stimulator (Pos), and 3) experimental group: groups treated with a stimulator and ZAG3 or a ZAG3-derived oligopeptide (Z20mer-1, Z20mer-2, Z20mer-3, Z15mer-1, Z15mer-2, Z15mer-3 or Z15mer-4). Concentrations were measured from cell culture by ELISA.
Macrophages (RAW 264.7 cells) were treated with a stimulator LPS at a concentration of 0.1 μg/mL for 24 hours, and then a concentration of IL-6 released in a cell culture medium was confirmed by ELISA assay.

Histamine = test: Atopic dermatitis efficacy test using mast cells (RBL-2H3): histamine released after PMA and A23187, ELISA; format: cell-based, rat; parameters: key: •: have statistical significance, determining as effective, compared with the positive control; details: 1 μg/mL for 24 hours, then PMA 1 μg/mL, A23187 1 μg/mL 12 hours
Method: as §1
Mast cells (RBL-2H3) were treated with 1 μg/mL of PMA and 1 μg/mL of A23187 as stimulators for 12 hours, and a concentration of histamine released in a cell culture medium was confirmed by ELISA assay.
as §2, §3
Mast cells (RBL-2H3) were treated with 1 μg/mL of PMA and 1 μg/mL of A23187 as simulators for 12 hours, and then a concentration of histamine released in a cell culture medium was confirmed by ELISA assay. As compared with the positive control (Pos), in all of the oligopeptide-treated groups, the histamine release was reduced (FIG. 2B).

CCL17/TARC = test: Atopic dermatitis efficacy test using keratinocytes (HaCaT): CCL17/TARC released after TNF-α and IFN-γ, ELISA; format: cell-based, human; parameters: key to HaCaT (human) CCL17/TARC: •: have statistical significance, determining as effective, compared with the positive control; details: for CCL17/TARC concentration released in cell culture medium: Example 2-3, FIG. 2C, HaCaT, 1 μg/mL 24 hours, TNF-α 0.4 μg/mL and IFN-γ 0.4 μg/mL 24 hours, compared with positive control (Pos); for HaCaT (human) CCL17/TARC: 1 μg/mL for 24 hours, then TNF-α 0.4 μg/mL, IFN-γ 0.4 μg/mL 24 hours
Method: as §1
Keratinocytes (HaCaT cells) were treated with 0.4 μg/mL of TNF-α and 0.4 μg/mL of IFN-γ as stimulators for 24 hours, and then a concentration of CCL17/TARC released in a cell culture medium was confirmed by ELISA assay.
as §2, §3

IgE = test: Atopic dermatitis efficacy test using B lymphocytes (RPMI 1788): IgE released after LPS, ELISA; format: cell-based, human; parameters: key: •: have statistical significance, determining as effective, compared with the positive control; details: then LPS 0.1 μg/mL 24 hours
Method: as §1
(§4) B lymphocytes (RPMI 1788) were treated with 0.1 μg/mL of LPS as a stimulator for 24 hours, and a concentration of IgE released in a cell culture medium was confirmed by ELISA assay.
as §2, §3
as §4, with “and then” for “and”, “assay. As compared with the positive control (Pos), in all of the oligopeptide-treated groups, IgE was reduced (FIG. 2D).” for “assay.”

IL-4 = test: Atopic dermatitis efficacy test using T lymphocytes: IL-4 released after IL-2, ELISA; format: cell-based, human; parameters: key to T lymphocyte (human) IL-4: •: have statistical significance, determining as effective, compared with the positive control; details: for IL-4: Example 2-5, FIG. 2E, compared with positive control (Pos); for IL-4 / IL-4 concentration released in cell culture medium: T lymphocytes, 1 μg/mL 24 hours; for T lymphocyte (human) IL-4: 1 μg/mL for 24 hours, then IL-2 50 ng/mL 12 hours; for IL-4 concentration released in cell culture medium: Example 1-5, FIG. 1E, IL-2 50 ng/mL 12 hours
Method: as §1
An atopic dermatitis efficacy test using T lymphocytes was performed with six peptide candidate groups (Z3, Z4, Z5, Z12, Z14, and Z15), which were determined to have efficacy from the results of Examples 1-1 to 1-4 described above. T lymphocytes were treated with 50 ng/mL of IL-2 as a stimulator for 12 hours, and a concentration of IL-4 released in a cell culture medium was confirmed by ELISA assay.
as §2, §3
An experiment was performed on T lymphocytes using the target peptides selected through the previous experiment. As compared with the positive control (Pos), in all of the oligopeptide-treated groups (Z20mer-1, Z20mer-2, Z20mer-3, Z15mer-1, Z15mer-2, Z15mer-3, and Z15mer-4), IL-4 was reduced (FIG. 2E).

[1] = Table 5, 1 μg/mL for 24 hours, vs positive control
[2] = Table 3, 1 μg/mL for 24 hours, vs stimulator only

Row | Molecule | IL-6 concentration released in cell culture medium (IL-6) | RAW 264.7 (mouse) IL-6 (IL-6; Table 5, vs positive control) | RBL-2H3 (rat) Histamine (Histamine; Table 5, vs positive control) | CCL17/TARC concentration released in cell culture medium (CCL17/TARC) | HaCaT (human) CCL17/TARC (CCL17/TARC; Table 5, vs positive control) | B lymphocyte (human) IgE (IgE; [1]) | IL-4 (IL-4) | T lymphocyte (human) IL-4 (IL-4; Table 5, vs positive control) | RAW 264.7 (mouse) IL-6 (IL-6; Table 3, vs stimulator only) | RBL-2H3 (rat) Histamine (Histamine; Table 3, vs stimulator only) | HaCaT (human) CCL17/TARC (CCL17/TARC; Table 3, vs stimulator only) | B lymphocyte (human) IgE (IgE; [2]) | IL-4 concentration released in cell culture medium (IL-4) | T lymphocyte (human) IL-4 (IL-4; Table 3, vs stimulator only)
1 | Z15mer-3: ZAG3-derived oligopeptide, SEQ ID NO. 25: KAREDIFMETLKDIV (ZAG protein-derived peptide) | significantly decreased | • | • | significantly decreased | • | • | reduced | • |  |  |  |  |  | 
2 | Z15mer-4: ZAG3-derived oligopeptide, SEQ ID NO. 26: IFMETLKDIVEYYND (ZAG protein-derived peptide) | significantly decreased | • | • | significantly decreased | • | • | reduced | • |  |  |  |  |  | 
3 | Z3: ZAG protein-derived peptide, SEQ ID NO. 3: EDWKQDSQLQKAREDIFMETLKDIVEYYND (ZAG protein-derived peptide) | significantly decreased |  |  | significantly decreased |  |  |  |  | • | • | • | • | significantly decreased | •
4 | Z4: ZAG protein-derived peptide, SEQ ID NO. 4: SNGSHVLQGRFGCEIENNRSSGAFWKYYYD (ZAG protein-derived peptide) |  |  |  |  |  |  |  |  | • | • | • | • | significantly decreased | •
5 | Z5: ZAG protein-derived peptide, SEQ ID NO. 5: GKDYIEFNKEIPAWVPFDPAAQITKQKWEA (ZAG protein-derived peptide) |  |  |  |  |  |  |  |  | • | • | • | • | significantly decreased | •
6 | Z14: ZAG protein-derived peptide, SEQ ID NO. 14: IFMETLKDIVEYYNDSNGSHVLQGRFGCEI (ZAG protein-derived peptide) |  |  |  |  |  |  |  |  | • | • | • | • | significantly decreased | •
7 | B1 |  |  |  |  |  |  |  |  | • | • | • | • |  | •
